Test results as given in publication PMC10653547, “Synergistic effect of two antimicrobial peptides, BP203 and MAP-0403 J-2 with conventional antibiotics against colistin-resistant Escherichia coli and Klebsiella pneumoniae clinical isolates” (PLOS ONE, 2023).
Read-outs that look alike come from different tables or passages of the source.

Columns and labels:
E. coli ATCC 25922 [1] = test system: E. coli ATCC 25922
Method: (§1) The MICs of BP203 and MAP-0403 J-2 against clinically colistin-resistant E. coli and K. pneumoniae isolates were determined using the broth microdilution method, according to CLSI recommendations. Briefly, the peptides were subjected to serial dilution in cation-adjusted Mueller-Hinton broth (CAMHB) and added to a 96-well microtiter plate (Wuxi NEST Biotechnology, Wuxi, China). Subsequently, bacterial suspensions from freshly mid-log phase cultures were diluted to 10^6 CFU/mL with CAMHB, and introduced to each well containing the peptides.
(§2) The antibacterial activity of BP203 and MAP-0403 J-2 was evaluated concerning their response to temperature, pH, serum, and salt ions using the MIC assay, following the previously mentioned procedure. The MIC values of peptides were determined against E. coli ATCC29522 and K. pneumoniae ATCC BAA-1706. […] For the pH stability assay, both peptides were incubated in buffers with different pH values (100 mM buffers: glycine-HCl buffer (pH 2.0), sodium acetate buffer (pH 4.0), sodium phosphate buffer (pH 6.0), Tris-HCl buffer (pH 8.0), and glycine-NaOH buffer (pH 10.0)) for 1 h at 37°C. […] For serum stability assay, both peptides were exposed to 25% and 50% fetal bovine serum (FBS) for 1 h at 37°C, followed by a heat activation step for 30 min at 60°C. Afterward, the peptide solutions were serially diluted and MIC was subsequently determined. […] The serial dilutions of peptides were incubated with tested strains for MIC testing. The MICs were observed after 20–24 h of incubation at 37°C.

[2] = test system: K. pneumoniae ATCC BAA-1706
Method: as §1, §2

[3] = test system: K. pneumoniae ATCC BAA-1706 and colistin-resistant K. pneumoniae clinical isolates
Method: as §1

[4] = test system: E. coli ATCC 25922 and colistin-resistant E. coli clinical isolates
Method: as §1

E. coli ATCC 25922 [5] = test system: E. coli ATCC 25922; remark: listed apart in the source
Method: as §1
(§3) The antibacterial activity of BP203 and MAP-0403 J-2 was evaluated concerning their response to temperature, pH, serum, and salt ions using the MIC assay, following the previously mentioned procedure. The MIC values of peptides were determined against E. coli ATCC29522 and K. pneumoniae ATCC BAA-1706. […] For the pH stability assay, both peptides were incubated in buffers with different pH values (100 mM buffers: glycine-HCl buffer (pH 2.0), sodium acetate buffer (pH 4.0), sodium phosphate buffer (pH 6.0), Tris-HCl buffer (pH 8.0), and glycine-NaOH buffer (pH 10.0)) for 1 h at 37°C. […] For serum stability assay, both peptides were exposed to 25% and 50% fetal bovine serum (FBS) for 1 h at 37°C, followed by a heat activation step for 30 min at 60°C. Afterward, the peptide solutions were serially diluted and MIC was subsequently determined. For the salt stability assay, each peptide was treated in MHB supplemented with different salts at their physiological concentrations; NaCl (100, 150, and 200 mM), MgCl2 (0.5, 1 and 2 mM), and FeCl3 […]. The serial dilutions of peptides were incubated with tested strains for MIC testing. The MICs were observed after 20–24 h of incubation at 37°C.

[6] = test system: K. pneumoniae ATCC BAA-1706; remark: listed apart in the source
Method: as §1, §3

[7] = 25% fetal bovine serum, 1 h at 37 °C
[8] = 50% fetal bovine serum, 1 h at 37 °C
[9] = pH 2, 100 mM glycine-HCl buffer, 1 h at 37 °C, neutralized
[10] = pH 4, 100 mM sodium acetate buffer, 1 h at 37 °C, neutralized
[11] = pH 6, 100 mM sodium phosphate buffer, 1 h at 37 °C, neutralized
[12] = pH 8, 100 mM Tris-HCl buffer, 1 h at 37 °C, neutralized
[13] = pH 10, 100 mM glycine-NaOH buffer, 1 h at 37 °C, neutralized
[14] = peptide incubated 1 h at 25 °C (control)

CC[C@H](C)[C@H](NC(=O)[C@H](CCCCN)NC(=O)[C@H](CCCCN)NC(=O)[C@H](Cc1ccccc1)NC(=O)[C@H](CC(C)C)NC(=O)[C@H](CCCCN)NC(=O)[C@@H](N)CCCCN)C(=O)N[C@@H](CC(C)C)C(=O)N[C@@H](CCCNC(=N)N)C(=O)N[C@@H](Cc1ccc(O)cc1)C(=O)N[C@@H](CC(C)C)C(N)=O [BP203]
16 to 512 µg/mL: MIC against colistin-resistant K. pneumoniae clinical isolates ([3]; range over ten isolates)
> 128 µg/mL: MIC for the majority of (most) colistin-resistant K. pneumoniae isolates [3]
16 μg/mL: MIC in the presence of physiological salts (E. coli ATCC 25922 [1]; NaCl 150 mM) | MIC in the presence of physiological salts (E. coli ATCC 25922 [1]; NaCl 200 mM) | MIC in the presence of physiological salts ([2]; NaCl 150 mM) | MIC in the presence of physiological salts ([2]; NaCl 200 mM)
32 µg/mL: MBC ([3]; KP-05) | MIC ([3]; KP-05)
2 µg/mL: MBC ([4]; EC-01) | MIC ([4]; EC-01) | MBC ([4]; EC-03) | MIC ([4]; EC-03) | MIC ([4]; EC-04) | MBC ([4]; EC-06) | MIC ([4]; EC-06) | MBC ([4]; EC-09) | MIC ([4]; EC-09)
128 µg/mL: MBC ([3]; KP-03) | MIC ([3]; KP-03) | MBC ([3]; KP-07) | MIC ([3]; KP-07)
2 to 16 µg/mL: MICs against colistin-resistant E. coli clinical isolates ([4]; range over ten isolates)
256 µg/mL: MBC ([3]; KP-02) | MIC ([3]; KP-02) | MBC ([3]; KP-06) | MIC ([3]; KP-06) | MBC ([3]; KP-08) | MIC ([3]; KP-08)
4 μg/mL: MIC in the presence of physiological salts (E. coli ATCC 25922 [1]; Control, 0) | MIC in the presence of physiological salts (E. coli ATCC 25922 [1]; FeCl3 1 μM) | MIC in the presence of physiological salts (E. coli ATCC 25922 [1]; FeCl3 4 μM) | MIC in the presence of physiological salts (E. coli ATCC 25922 [1]; FeCl3 8 μM) | MIC in the presence of physiological salts (E. coli ATCC 25922 [1]; MgCl2 0.5 mM) | MIC in the presence of physiological salts (E. coli ATCC 25922 [1]; MgCl2 1 mM) | MIC in the presence of physiological salts ([2]; Control, 0) | MIC in the presence of physiological salts ([2]; FeCl3 1 μM) | MIC in the presence of physiological salts ([2]; MgCl2 0.5 mM) | MIC after pH treatment (E. coli ATCC 25922 [5]; [9]) | MIC after pH treatment (E. coli ATCC 25922 [5]; [10]) | MIC after pH treatment (E. coli ATCC 25922 [5]; [11]) | MIC after pH treatment (E. coli ATCC 25922 [5]; pH 7 (control)) | MIC after pH treatment (E. coli ATCC 25922 [5]; [12]) | MIC after pH treatment (E. coli ATCC 25922 [5]; [13]) | MIC after pH treatment [6, 9] | MIC after pH treatment [6, 10] | MIC after pH treatment [6, 11] | MIC after pH treatment ([6]; pH 7 (control)) | MIC after pH treatment [6, 12] | MIC after pH treatment [6, 13]
512 µg/mL: MBC ([3]; KP-04) | MIC ([3]; KP-04) | MBC ([3]; KP-09) | MIC ([3]; KP-09) | MBC ([3]; KP-10) | MIC ([3]; KP-10)
8 μg/mL: MIC in the presence of physiological salts (E. coli ATCC 25922 [1]; MgCl2 2 mM) | MIC in the presence of physiological salts (E. coli ATCC 25922 [1]; NaCl 100 mM) | MIC in the presence of physiological salts ([2]; FeCl3 4 μM) | MIC in the presence of physiological salts ([2]; FeCl3 8 μM) | MIC in the presence of physiological salts ([2]; MgCl2 1 mM) | MIC in the presence of physiological salts ([2]; MgCl2 2 mM) | MIC in the presence of physiological salts ([2]; NaCl 100 mM)
16 µg/mL: MBC ([3]; KP-01) | MIC ([3]; KP-01) | MBC ([4]; EC-08) | MIC ([4]; EC-08)
4 µg/mL: MBC ([3]; K. pneumoniae ATCC BAA-1706) | MIC ([3]; K. pneumoniae ATCC BAA-1706) | MBC ([4]; E. coli ATCC 25922) | MIC ([4]; E. coli ATCC 25922) | MBC ([4]; EC-04) | MIC after FBS treatment (E. coli ATCC 25922 [5]; 0% FBS (control)) | MIC after FBS treatment (E. coli ATCC 25922 [5]; [7]) | MIC after temperature treatment (E. coli ATCC 25922 [5]; [14]) | MIC after temperature treatment (E. coli ATCC 25922 [5]; peptide incubated 1 h at 37 °C) | MIC after temperature treatment (E. coli ATCC 25922 [5]; peptide incubated 1 h at 50 °C) | MIC after temperature treatment (E. coli ATCC 25922 [5]; peptide incubated 1 h at 70 °C) | MIC after temperature treatment (E. coli ATCC 25922 [5]; peptide incubated 1 h at 90 °C) | MIC after FBS treatment ([6]; 0% FBS (control)) | MIC after FBS treatment [6, 7] | MIC after FBS treatment [6, 8] | MIC after temperature treatment [6, 14] | MIC after temperature treatment ([6]; peptide incubated 1 h at 37 °C) | MIC after temperature treatment ([6]; peptide incubated 1 h at 50 °C) | MIC after temperature treatment ([6]; peptide incubated 1 h at 70 °C) | MIC after temperature treatment ([6]; peptide incubated 1 h at 90 °C)
8 µg/mL: MBC ([4]; EC-02) | MIC ([4]; EC-02) | MBC ([4]; EC-05) | MIC ([4]; EC-05) | MBC ([4]; EC-07) | MIC ([4]; EC-07) | MBC ([4]; EC-10) | MIC ([4]; EC-10) | MIC after FBS treatment (E. coli ATCC 25922 [5]; [8])
